Patent US11007136B2, “Cosmetic composition for wrinkle reduction containing gypenoside isolated from Gynostemma pentaphyllum” (CELLTRION INC., priority 2015, dated 2021)

Experiment: Stability of the fraction in raw material solution (HPLC content of UL4, UL5)
Assay type: physicochemical
Conditions: for content stability Results: over 12 weeks
Protocol: A solution obtained by dissolving powder of the Gynostemma pentaphyllum gypenoside fraction at a concentration of 4% in 100 mL of a mixed solvent of propylene glycol, glycerin and distilled water at a ratio of 5:3:2 was used to identify stability of the Gynostemma pentaphyllum gypenoside fraction in a raw material state. While the solution was being stored under a condition of 4° C., 30° C. and 45° C. and sunlight for 12 weeks, changes with passage of time (% compared to an initial content) in the gypenosides UL4 and UL5, which were index ingredients for quantification out of the Gynostemma pentaphyllum gypenosides, were observed through an HPLC analysis and results thereof were indicated in Table 3.

| content, % compared to an initial content (4° C., 1 week) [%] | content, % compared to an initial content (4° C., 2 weeks) [%] | content, % compared to an initial content (4° C., 4 weeks) [%] | content, % compared to an initial content (4° C., 8 weeks) [%] | content, % compared to an initial content (4° C., 12 weeks) [%] | content stability Results (4° C.) | content, % compared to an initial content (30° C., 1 week) [%] | content, % compared to an initial content (30° C., 2 weeks) [%] | content, % compared to an initial content (30° C., 4 weeks) [%] | content, % compared to an initial content (30° C., 8 weeks) [%] | content, % compared to an initial content (30° C., 12 weeks) [%] | content stability Results (30° C.) | content, % compared to an initial content (45° C., 1 week) [%] | content, % compared to an initial content (45° C., 2 weeks) [%] | content, % compared to an initial content (45° C., 4 weeks) [%] | content, % compared to an initial content (45° C., 8 weeks) [%] | content, % compared to an initial content (45° C., 12 weeks) [%] | content stability Results (45° C.) | content, % compared to an initial content (Sunlight, 1 week) [%] | content, % compared to an initial content (Sunlight, 2 weeks) [%] | Structure (SMILES) | other results |
| --- | --- | --- | --- | --- | --- | --- | --- | --- | --- | --- | --- | --- | --- | --- | --- | --- | --- | --- | --- | --- | --- |
| 100.2 | 98.1 | 96.9 | 98.3 | 96.1 | Stable | 102.8 | 99.9 | 98.7 | 96.5 | 96.6 | Stable | 97.1 | 96.3 | 102.7 | 97.5 | 102.4 | Stable | 97.6 | 96.6 | CC(C)=CC1C[C@](O)([C@H]2CC[C@]3(C)[C@@H]2CC[C@@H]2[C@@]4(C=O)CC[C@H](O[C@@H]5OC[C@H](O)[C@H](O[C@@H]6OC[C@@H](O)[C@H](O)[C@H]6O)[C@H]5O[C@@H]5O[C@@H](C)[C@H](O)[C@@H](O)[C@H]5O)C(C)(C)[C@@H]4CC[C@]23C)[C@H](O)O1 (stereo partly drawn) [Gypenoside UL4, (23ξ)-3β,20β,21α-trihydroxy-19-oxo-21,23-epoxy-dammar-24-ene-3-O-[α-L-rhamnopyranosyl (1→2)][β-D-xylopyranosyl (1→3)]-α-L-arabinopyranoside] | content, % compared to an initial content (Sunlight, 4 weeks): 96.6%; content, % compared to an initial content (Sunlight, 8 weeks): 98.1%; content, % compared to an initial content (Sunlight, 12 weeks): 97.1%; content stability Results (Sunlight): Stable |
| 98.8 | 101.3 | 97 | 97.9 | 98.1 | Stable | 101.8 | 98.2 | 99 | 101.2 | 102.9 | Stable | 97.6 | 97.5 | 96.9 | 99.2 | 103.8 | Stable | 101.1 | 98.4 | CC(C)=CC1C[C@](O)([C@H]2CC[C@]3(C)[C@@H]2CC[C@@H]2[C@@]4(C=O)CC[C@H](O[C@@H]5OC[C@H](O)[C@H](O[C@@H]6O[C@H](CO)[C@@H](O)[C@H](O)[C@H]6O)[C@H]5O[C@@H]5O[C@@H](C)[C@H](O)[C@@H](O)[C@H]5O)C(C)(C)[C@@H]4CC[C@]23C)[C@H](O)O1 (stereo partly drawn) [Gypenoside UL5, (23ξ)-3β,20β,21α-trihydroxy-19-oxo-21,23-epoxy-dammar-24-ene-3-O-[α-L-rhamnopyranosyl (1→2)][β-D-glucopyranosyl (1→3)]-α-L-arabinopyranoside] | content, % compared to an initial content (Sunlight, 4 weeks): 98.8%; content, % compared to an initial content (Sunlight, 8 weeks): 97.2%; content, % compared to an initial content (Sunlight, 12 weeks): 97.8%; content stability Results (Sunlight): Stable |
